pEC50, pIC50: −log10 of the molar value. Where a name gives a salt, the structure may show the parent alone.
Columns and labels:
BACE-1 [1] = target: T1, BACE-1 (Homo sapiens, UniProt P56817); assay: HTRF cell based assay, Aβ1-40 peptide secreted by recombinant HEK293 cells; parameters: endogenous in cells; host or cells: recombinant HEK293 cells engineered to over-produce APP; conditions: Aβ1-40 secretion, recombinant HEK293 cells producing APP, overnight treatment; read-out: Cellular assay EC50 Ranges
T1 sequence (P56817 46-501): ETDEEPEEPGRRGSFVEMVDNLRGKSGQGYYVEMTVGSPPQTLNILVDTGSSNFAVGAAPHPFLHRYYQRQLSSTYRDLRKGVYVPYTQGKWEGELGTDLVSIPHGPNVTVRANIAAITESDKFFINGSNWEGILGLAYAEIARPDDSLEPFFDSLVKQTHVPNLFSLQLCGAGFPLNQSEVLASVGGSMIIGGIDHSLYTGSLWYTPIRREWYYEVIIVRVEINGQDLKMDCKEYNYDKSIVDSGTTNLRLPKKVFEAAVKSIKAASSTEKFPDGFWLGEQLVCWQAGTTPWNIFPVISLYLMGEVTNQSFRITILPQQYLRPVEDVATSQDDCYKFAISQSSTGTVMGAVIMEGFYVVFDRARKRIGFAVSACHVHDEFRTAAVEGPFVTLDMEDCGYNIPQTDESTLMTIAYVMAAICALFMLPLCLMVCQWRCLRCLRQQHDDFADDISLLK
Procedure: The cell based assay used to support the program utilized HTRF assay reagents from Cisbio (Catalogue number 62B40PEB) to quantify the amount of Aβ1-40 peptide secreted by recombinant HEK293 cells. The cells were engineered to produce high quantities of APP, the precursor for Aβ1-40 peptide, under hygromycin selection pressure. Briefly, cells were plated into 384-well microplates and allowed to settle for 2 hours prior to compound addition. Following overnight treatment with compound, the media containing secreted peptide was transferred into a low volume assay plate for quantification with HTRF immunoassay reagents. Adhering to the manufacturers protocol for quantification, a TR-FRET signal is obtained in the presence of the Aβ1-40 peptide following addition of a cryptate conjugated antibody and an XL665 conjugated antibody, each raised to a different epitope of the Aβ1-40 peptide. A low FRET signal is obtained when cells are treated with compounds that inhibit APP cleavage and peptide secretion.

BACE-1 [2] = target: T1, BACE-1; assay: LanthaScreen BACE1 biochemical assay (TR-FRET)
Procedure: Biochemical Assay to Assess Compounds for Inhibition of BACE-1
The LanthaScreen™ BACE1 assay kit from Invitrogen (Catalogue number PV4748) was used as the primary assay in the screening cascade.
Briefly, the test compound was incubated with the enzyme and substrate for 1 hour at room temperature in a reaction volume of 15 μl and then 5 nM terbium labelled anti-biotin antibody was added to stop the reaction and the solution incubated for a further 1 hour at room temperature. The microplate was read on an Envision plate reader fitted with a photometric 340 nm excitation filter and the amount of substrate that had been cleaved was represented by the TR-FRET ratio, calculated by dividing the Fluorescein emission signal (520 nm) by the Terbium emission signal (495 nm).

pEC50 (BACE-1 [1])	pIC50 (BACE-1 [2])	SMILES
4.30 to 5.30	5.30 to 6.00	COc1cccc(-c2cccc(-c3cc4c(s3)CC(C)(C)CC43CCSC(N)=N3)c2)c1 (stereo not drawn) [Example 41, 2-(3′-methoxybiphenyl-3-yl)-6,6-dimethyl-5′,6,6′,7-tetrahydro-5H-spiro[benzo[b]thiophene-4,4′-[1,3]thiazin]-2′-amine, Formate Salt]
4.30 to 5.30	5.30 to 6.00	COc1ccc(-c2cccc(-c3cc4c(s3)CC(C)(C)CC43CCSC(N)=N3)c2)cc1 (stereo not drawn) [Example 42]
4.30 to 5.30	4.19 to 5.30	CC1(C)CCc2sc(-c3cccc(C(F)(F)F)c3)cc2C12CCSC(N)=N2 (stereo not drawn) [Example 46, 5,5-dimethyl-2-(3-(trifluoromethyl)phenyl)-5′,6,6′,7-tetrahydro-5H-spiro[benzo[b]thiophene-4,4′-[1,3]thiazin]-2′-amine]
≥ 6.00	> 6.00	CN1C(=O)C2(CCCc3sc(-c4cccc(C#N)c4)cc32)N=C1N (stereo not drawn) [Example 49, 3-(2′-amino-1′-methyl-5′-oxo-1′,5′,6,7-tetrahydro-5H-spiro[benzo[b]thiophene-4,4′-imidazole]-2-yl)benzonitrile]
5.30 to 6.00	4.19 to 5.30	CN1C(=O)C2(CCCc3sc(-c4cccnc4)cc32)N=C1N (stereo not drawn) [Example 52]
4.30 to 5.30	5.30 to 6.00	CN1C(=O)C2(CCCc3sc(-c4cccc(OC(F)(F)F)c4)cc32)N=C1N (stereo not drawn) [Example 53]
5.30 to 6.00	> 6.00	CN1C(=O)C2(CCCc3sc(-c4cccc(C(F)(F)F)c4)cc32)N=C1N (stereo not drawn) [Example 54]
5.30 to 6.00	5.30 to 6.00	COc1cc(C#N)cc(-c2cc3c(s2)CCCC32N=C(N)N(C)C2=O)c1 (stereo not drawn) [Example 55]
5.30 to 6.00	5.30 to 6.00	CN1C(=O)C2(CCCc3sc(-c4cccc(Cl)c4)cc32)N=C1N (stereo not drawn) [Example 56]
4.30 to 5.30	> 6.00	N#Cc1cccc(-c2cc3c(s2)CCCC32N=C(N)N(Cc3ccccc3)C2=O)c1 (stereo not drawn) [Example 57, 3-(2′-amino-1′-benzyl-5′-oxo-1′,5′,6,7-tetrahydro-5H-spiro[benzo[b]thiophene-4,4′-imidazole]-2-yl)benzonitrile]
4.30 to 5.30	5.30 to 6.00	CN1OC2(CCCc3sc(-c4cccc(C(F)(F)F)c4)cc32)N=C1N (stereo not drawn) [Example 58, 2′-methyl-2-(3-(trifluoromethyl)phenyl)-6,7-dihydro-2′H,5H-spiro[benzo[b]thiophene-4,5′-[1,2,4]oxadiazol]-3′-amine]
4.30 to 5.30	5.30 to 6.00	NC1=NC2(CCCc3sc(-c4cccc(C(F)(F)F)c4)cc32)ON1Cc1ccccc1 (stereo not drawn) [Example 59]
4.30 to 5.30	> 6.00	N#Cc1cccc(-c2cc3c(s2)CCCC32N=C(N)N(Cc3ccccc3)O2)c1 (stereo not drawn) [Example 60]
4.30 to 5.30	5.30 to 6.00	NC1=NC2(CCCc3cc(-c4cccc(-c5ccccc5)c4)sc32)CCS1 (stereo not drawn) [Example 61]
4.30 to 5.30	4.19 to 5.30	N#Cc1cccc(-c2cc3c(s2)C2(CCC3)CCSC(N)=N2)c1 (stereo not drawn) [Example 62]
